Like-named read-outs stand apart in the source and are kept apart here.
Experiments:
Pseudomonas aeruginosa [1] = test: MBEC assay: sessile (biofilm) MIC of antibiotics in absence and presence of LMS-611; assay type: cell-based; settings: for sessile MIC + LMS: in presence of LMS-611 (10 mg/mL); for reduction of sessile MIC of the antibiotic by LMS-611: PA strains, in combination with LMS-611; for MIC: Pseudomonas aeruginosa; for MIC / sessile MIC: antibiotic alone; for effect of LMS-611 with antibiotic in reducing biofilm MICs, compared with antibiotic alone: strain PA01, FIG. 14-17
Method: Pseudomonas aeruginosa strains PA01, PAl4, two clinical Cystic Fibrosis (CF) strains […], YH1 and Burkholderia cenocepacia strains […]7 and YHBCC8 were grown on a Nunc Immunosorp PEG plate model for 48 h on a rocking platform. […] Scanning electron microscopy was used to assess the treated biofilms.

Burkholderia cenocepacia = test: as above; assay type: cell-based; settings: for MIC: Burkholderia cenocepacia
Method: Pseudomonas aeruginosa strains PA01, PAl4, two clinical Cystic Fibrosis (CF) strains H183, YH1 and Burkholderia cenocepacia strains K56-2, YHBCC5, YHBCC6, YHBCC7 and YHBCC8 were grown on a Nunc Immunosorp PEG plate model for 48 h on a rocking platform. […] Scanning electron microscopy was used to assess the treated biofilms.

Pseudomonas aeruginosa [2] = test: Artificial sputum medium (ASM) biofilm assay; assay type: cell-based; settings: for bacterial kill of antibiotic with LMS-611: LMS-611 at 40 μg/ml
Text: ASM is artificial sputum medium.
Images of PA biofilm in ASM. Quantification of bacterial count from the ASM biofilm (CFU/mL).
In vitro, Artificial Sputum Models (ASM), considered to represent biofilm typical of that seen in CF, were used to study Pseudomonas aeruginosa infection.
Pyocyanin, a blue-green phenazine pigment produced by P. aeruginosa and controlled by the quorum sensing system (a system of inter-bacterial signalling which correlates to population density) and thus its presence and concentration in a bacterial culture can be used to give an indication of the strength of quorum sensing activity.
Measurement of metabolic activity of Pseudomonas aeruginosa in the Artificial Sputum Model (ASM) using a Resazurin assay, in which the fluorescence detected is directly proportional to the metabolic activity of the bacteria (FIG. 3).

PA strains = test: Nebulisation of LMS-611 combined with antibiotic, multistage liquid impactor (MSLI); parameters: species or system Pseudomonas aeruginosa; settings: colistin: PA2783 strain, stages representing site of cystic fibrosis lung disease; tobramycin: PA strain 27853
Text: FIG. 18 illustrates the effect of nebulisation of LMS-611 when combined with Colistin with PA strain 217M using nebulisers with two different modes of operation (Pari-boy (jet-type) and Pari Flow (oscillating mesh)) wherein a multistage liquid impactor (MSLI) was used to measure the aerodynamic particle size distribution and deposition from nebulised LMS-611 compositions wherein the MSLI from Copley measures particle size in accordance with the European Pharmacopeia guidelines (Chapter […]) and the impactor has five stages simulating the various parts of the human respiratory system. Particles with the same inertia will impact upon a particular stage, whilst smaller particles will pass onto the next impaction stage such that by analysing the amount of LMS-611 deposited on the various stages the fine particle dose and fraction can be calculated wherein the fine particle dose (respirable fraction) is the proportion of the dose from an inhalation device (nebuliser) that is made available to the airways, and this correlates with the dose of LMS-611 that reaches the conducting airways during inhalation;

Compound	sessile MIC + LMS (Pseudomonas aeruginosa [1]; PA strain H183) [mg/mL]	sessile MIC + LMS (Pseudomonas aeruginosa [1]; PA strain PA01) [mg/mL]	sessile MIC + LMS (Pseudomonas aeruginosa [1]; PA strain PA14) [mg/mL]	sessile MIC + LMS (Pseudomonas aeruginosa [1]; PA strain YH1) [mg/mL]	reduction of sessile MIC of the antibiotic by LMS-611 (Pseudomonas aeruginosa [1])	MIC (Pseudomonas aeruginosa [1]; PA14, PA strain PA14) [µg/mL]	MIC (Pseudomonas aeruginosa [1]; PA strain H183) [µg/mL]	MIC (Pseudomonas aeruginosa [1]; PA strain PA01) [µg/mL]	MIC (Pseudomonas aeruginosa [1]; PA strain YH1) [µg/mL]	effect of LMS-611 with antibiotic in reducing biofilm MICs, compared with antibiotic alone (Pseudomonas aeruginosa [1])	further results
C[C@@H](O)[C@H]1C(=O)N2C(C(=O)O)=C(S[C@@H]3CN[C@H](C(=O)N(C)C)C3)[C@H](C)[C@H]12 [Meropenem]	1	2	2	1	1-2 fold	2000	2000	2000	2000	–	–
Gentamicin	0.5	0.5	0.5	–	4-8 fold	–	–	–	–	more effective	sessile MIC (Burkholderia cenocepacia; BCC strain K56-2, antibiotic alone): 256 mg/mL; sessile MIC + LMS (Burkholderia cenocepacia; BCC strain K56-2, in presence of LMS-611 (10 mg/mL)): 64 mg/mL; sessile MIC (Burkholderia cenocepacia; BCC strain YHBCC5, antibiotic alone): >256 mg/mL; sessile MIC + LMS (Burkholderia cenocepacia; BCC strain YHBCC5, in presence of LMS-611 (10 mg/mL)): 256 mg/mL; sessile MIC (Burkholderia cenocepacia; BCC strain YHBCC6, antibiotic alone): 64 mg/mL; sessile MIC + LMS (Burkholderia cenocepacia; BCC strain YHBCC6, in presence of LMS-611 (10 mg/mL)): 16 mg/mL; sessile MIC (Burkholderia cenocepacia; BCC strain YHBCC7, antibiotic alone): 128 mg/mL; sessile MIC + LMS (Burkholderia cenocepacia; BCC strain YHBCC7, in presence of LMS-611 (10 mg/mL)): 16 mg/mL; sessile MIC (Pseudomonas aeruginosa [1]; PA strain H183): 4 mg/mL; sessile MIC (Pseudomonas aeruginosa [1]; PA strain PA01): 4 mg/mL; sessile MIC (Pseudomonas aeruginosa [1]; PA strain PA14): 4 mg/mL; sessile MIC (Pseudomonas aeruginosa [1]; PA strain YH1): 0.5 mg/mL
CC(C)(O/N=C(\C(=O)N[C@@H]1C(=O)N2C(C(=O)[O-])=C(C[n+]3ccccc3)CS[C@H]12)c1csc(N)n1)C(=O)O [ceftazidime]	–	–	–	–	–	–	–	–	–	more effective	–
CCN1CCN(C(=O)N[C@@H](C(=O)N[C@@H]2C(=O)N3[C@@H]2SC(C)(C)[C@@H]3C(=O)O)c2ccccc2)C(=O)C1=O [Piperacillin]	0.25	0.25	1	1	4-16 fold	8000	4000	2000	8000	more effective	MIC (Burkholderia cenocepacia; BCC strain K56-2, antibiotic alone, read-out: sessile MIC): 64 mg/mL; MIC (Burkholderia cenocepacia; BCC strain K56-2, in presence of LMS-611 (10 mg/mL), read-out: sessile MIC + LMS): 16 mg/mL; MIC (Burkholderia cenocepacia; BCC strain YHBCC5, antibiotic alone, read-out: sessile MIC): 32 mg/mL; MIC (Burkholderia cenocepacia; BCC strain YHBCC5, in presence of LMS-611 (10 mg/mL), read-out: sessile MIC + LMS): 4 mg/mL; MIC (Burkholderia cenocepacia; BCC strain YHBCC6, antibiotic alone, read-out: sessile MIC): 32 mg/mL; MIC (Burkholderia cenocepacia; BCC strain YHBCC6, in presence of LMS-611 (10 mg/mL), read-out: sessile MIC + LMS): 32 mg/mL; MIC (Burkholderia cenocepacia; BCC strain YHBCC7, antibiotic alone, read-out: sessile MIC): 32 mg/mL; MIC (Burkholderia cenocepacia; BCC strain YHBCC7, in presence of LMS-611 (10 mg/mL), read-out: sessile MIC + LMS): 4 mg/mL
NC[C@H]1O[C@H](O[C@H]2[C@H](O)[C@@H](O[C@H]3O[C@H](CO)[C@@H](O)[C@H](N)[C@H]3O)[C@H](N)C[C@@H]2N)[C@H](N)C[C@@H]1O [Tobramycin]	<4	<4	<4	0.5	1-4 fold	< 4000	< 4000	< 4000	2000	–	bacterial kill of antibiotic with LMS-611 (Pseudomonas aeruginosa [2]): total bacterial kill; bacterial clearance of LMS-611 plus antibiotic compared to antibiotic treatment alone (Pseudomonas aeruginosa [2]; preformed biofilm, in combination with LMS-611): significantly greater bacterial clearance; bactericidal effect of nebulised antibiotic combined with LMS-611 by MSLI stage (PA strains): greater on the 6.8 μm, 3.1 μm and 1.7 μm stages
CC[C@H]1OC(=O)[C@H](C)[C@@H](O[C@H]2C[C@@](C)(OC)[C@@H](O)[C@H](C)O2)[C@H](C)[C@@H](O[C@@H]2O[C@H](C)C[C@H](N(C)C)[C@H]2O)[C@](C)(O)C[C@@H](C)C(=O)[C@H](C)[C@@H](O)[C@]1(C)O [erythromycin]	–	–	–	–	–	–	–	–	–	–	reduction of sessile MIC of the antibiotic by LMS-611 (Burkholderia cenocepacia; BCC strains, in combination with LMS-611): No effect
colistin	–	–	–	–	–	–	–	–	–	more effective	bactericidal effect of nebulised antibiotic combined with LMS-611 by MSLI stage (PA strains): greatest bactericidal effect
C[C@H]1[C@H](NC(=O)/C(=N\OC(C)(C)C(=O)O)c2csc(N)n2)C(=O)N1S(=O)(=O)O [Aztreonam]	2	2	2	1	2-4 fold	4000	4000	4000	4000	–	–
O=C(O)c1cn(C2CC2)c2cc(N3CCNCC3)c(F)cc2c1=O [Ciprofloxacin]	–	–	–	–	–	–	–	–	–	–	bacterial kill of antibiotic with LMS-611 (Pseudomonas aeruginosa [2]): total bacterial kill
